Test results as given in publication PMC9927515, “Discovery and Mechanism of Action of a Novel Antimicrobial Peptide from an Earthworm” (Microbiology Spectrum, 2023).
Where no end group is shown, it is not given here.

Experiments:
[1] = Sensitivity to temperature (residual antibacterial rate); type: physicochemical; settings: water bath 50-100°C for 1 h; residual antibacterial rate by MIC method, OD600; especially in E. coli; Fig. S2a
Protocol: (§1) The AMP was treated for 1 h with a water bath heated at 50, 60, 70, 80, 90, or 100°C to evaluate temperature sensitivity, while the pH was adjusted to 2, 4, 6, 8, 10, and 12 and then back to 7.4 after 1 h to evaluate pH sensitivity. The changes in antibacterial activity were determined using the MIC method, as follows: antibacterial rate = [(OD600 positive control − OD600 sample)/(OD600 positive control − OD600 negative control)] × 100, where OD600 is the optical density at 600 nm.
(§2) Table S1 Sequences of 21 synthetic peptides
(§3) Table S3 Sequences and MICs of derivatives of EWAMP.15
(§4) Table S4 Sequences and MICs of Alanine scanning derivatives
(§5) Table S5 Sequences and MICs of Arg and Lys derivatives
(§6) Table S6 Summary of membrane thickness
(§7) Table S7 Primers used in RT-PCR
(§8) Fig. S1 MICs of EWAMP.15 12 -24 derivatives that were replaced in different sites. In
(§9) the X-axis, the number and the letter represent the replaced site and the amino acid residue.
(§10) Fig. S2 Physical stability and in vitro toxicity of EWAMP-R. (a) Residual antibacterial
(§11) rates after water heating for 1 h showing the temperature stability. (b) Residual antibacterial
(§12) rates after acid or alkaline solution treatment showing the pH stability. (c) Hemolytic
(§13) and negative controls. (d) Cell survival rate of LO2 after EWAMP-R treatment. All the cell
(§14) survival rate was above 95%.
(§15) Fig. S3 Root-mean-squared deviation (RMSD) and root-mean-squared fluctuation […]

[2] = Sensitivity to pH (residual antibacterial rate); type: physicochemical; settings: pH adjusted to 2-12, back to 7.4 after 1 h; residual antibacterial rate by MIC method, OD600; especially in E. coli; Fig. S2b
Protocol: as §1, §2, §3, §4, §5, §6, §7, §8, §9, §10, §11, §12, §13, §14, §15

sheep blood = type: cell-based
Protocol: Sterile defibrinated sheep blood (Titan, Shanghai, China) was kept at 4°C and was used within 3 days after being received. Hemolysis assessment was conducted following the method of Liu et al. ([34]). The hemolysis rate was calculated using the following formula: hemolysis rate = [([…] sample - […] blank)/([…] 0.2% Triton X-100 - […] blank)] × 100.

RIWWSGGWRRWRW [EWAMP-R]
stability of antibacterial activity under temperature changes [1]: comparative stability | stability of antibacterial activity under pH changes [2]: comparative stability | hemolytic activity: absorbance in treatment groups versus negative controls (sheep blood): not significantly different
